In patent US12661410B2, “Compounds for targeted degradation of RET” (C4 Therapeutics, Inc., priority 2020, dated 2026):
Positions count from the first letter of the chain named. Read-outs that look alike come from different tables or passages of the source.

Tests used:
[1] = biological target: T1, RET(KD: 658-1114 G810R) (Homo sapiens, UniProt P07949, G810R); assay: HiBiT-Degradation, RET G810R degradation assay (Nano-Glo HiBiT Lytic), 293T.165 cells; format: cell-based; details: for Emax / DC50: 6.0 hours
T1 construct: 658-1114; expressed in transfected cells; host or cells: 293T.165 (293T cells, generated in-house)
T1 sequence (P07949 658-1114 G810R): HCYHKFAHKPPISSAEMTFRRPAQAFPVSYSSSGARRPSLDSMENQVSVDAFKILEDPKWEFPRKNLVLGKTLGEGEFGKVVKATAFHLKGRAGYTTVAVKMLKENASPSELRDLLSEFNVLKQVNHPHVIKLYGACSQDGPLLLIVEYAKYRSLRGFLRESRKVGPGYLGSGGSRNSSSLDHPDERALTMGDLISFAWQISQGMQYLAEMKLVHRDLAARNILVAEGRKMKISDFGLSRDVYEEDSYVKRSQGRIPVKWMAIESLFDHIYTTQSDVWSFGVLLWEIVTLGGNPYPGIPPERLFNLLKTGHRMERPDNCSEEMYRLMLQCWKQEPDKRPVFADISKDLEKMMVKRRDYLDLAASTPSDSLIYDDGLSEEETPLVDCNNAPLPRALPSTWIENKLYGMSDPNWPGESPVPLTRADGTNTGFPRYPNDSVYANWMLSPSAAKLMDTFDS
Description: (§1) Dulbecco's modified Eagle medium (DMEM) no-phenol red media and fetal bovine serum (FBS) were purchased from Gibco (Grand Island, NY, USA). Cell lines ectopically expressing wild-type or G810R RET kinase domain fused with a HiBiT tag were generated in-house (293T. 144 and 293T. 165, respectively). Cell culture flasks and 384-well microplates were acquired from VWR (Radnor, PA, USA). The Nano-Glo® HiBiT Lytic Assay System was purchased from Promega (Madison, WI, USA).
(§2) RET wild-type (WT) and G810R degradation were assessed using the Nano-Glo® HiBiT Lytic assay (Promega, Medison, WI, USA). To determine the effect of degraders on protein levels, cells were plated in 384-well plates and treated with compounds of interest in duplicates for 6 hours using an 11-point half-log dilution series, with the highest dose set at 10 μM. Cell lysis and addition of the Nano-Glo® HiBiT Lytic Assay reagents was then performed. Luminescence signal was measured using an EnVision™ Multimode plate reader (Perkin Elmer, Santa Clara, CA, USA). The half-maximal degradation concentration (DC50) and % remaining protein (Emax) was then derived from the dose-response curves.

[2] = biological target: T2, RET (658-1114) (Homo sapiens, UniProt P07949); assay: HiBiT-Degradation, RET wild-type degradation assay (Nano-Glo HiBiT Lytic), 293T.144 cells; format: cell-based; details: for DC50 / Emax: 6.0 hours
T2 construct: 658-1114; expressed in transfected cells; host or cells: 293T.144 (293T cells, generated in-house)
T2 sequence (P07949 658-1114): T1 sequence (P07949 658-1114 G810R) with R153G
Description: as §1, §2

[3] = % remaining protein, read-out: 293T.165 RET(KD: 658-1114 G810R) 6.0 hours (Emax)
[4] = half-maximal degradation concentration, read-out: 293T.165 RET(KD: 658-1114 G810R) 6.0 hours (DC50)
[5] = RET G810R, read-out: HiBiT-Degradation 293T.165 RET(KD: 658-1114 G810R) 6.0 hours (DC50)
[6] = RET G810R, read-out: HiBiT-Degradation 293T.165 RET(KD: 658-1114 G810R) 6.0 hours (Emax)
[7] = RET wild-type, read-out: HiBiT-Degradation 293T.144 RET (658-1114) 6.0 hours (DC50)
[8] = RET wild-type, read-out: HiBiT-Degradation 293T.144 RET (658-1114) 6.0 hours (Emax)
[9] = % remaining protein, read-out: 293T.144 RET (658-1114) 6.0 hours (Emax)
[10] = half-maximal degradation concentration, read-out: 293T.144 RET (658-1114) 6.0 hours (DC50)
[11] = HiBiT-Degradation, read-out: 293T.165 RET(KD: 658-1114 G810R) 6.0 hours (DC50)
[12] = HiBiT-Degradation, read-out: 293T.144 RET (658-1114) 6.0 hours (DC50)
[13] = HiBiT-Degradation, read-out: 293T.144 RET (658-1114) 6.0 hours (Emax)

Emax [1, 3]	DC50 [1, 4]	293T.165 RET(KD: 658-1114 G810R) 6.0 hours (IP) [nM] [1]	293T.144 RET (658-1114) 6.0 hours (IP) [nM] [2]	Emax [2, 9]	DC50 [2, 10]	Structure (SMILES)	further results
< 50%	< 100 nM					CCC1(C(=O)NC(C)C)CCN(c2ccc(-c3nc(-c4cnn(C5CCN(C(=O)CC6(O)CCN(c7ccc(NC8CCC(=O)NC8=O)cc7)CC6)CC5)c4)cn4ncc(C#N)c34)cn2)CC1 (centres unmarked) [Compound 85, 1-[5-[3-cyano-6-[1-[1-[2-[1-[4-[(2,6-dioxo-3-piperidyl)amino]phenyl]-4-hydroxy-4-piperidyl]acetyl]-4-piperidyl]pyrazol-4-yl]pyrazolo[1,5-a]pyrazin-4-yl]-2-pyridyl]-4-ethyl-N-isopropyl-piperidine-4-carboxamide]	HiBiT-Degradation 293T.165 RET(KD: 658-1114 G810R) 6.0 hours (IP) [nM] ([1]; RET G810R): ++++ (< 50 nM = ++++); DC50 [1, 5]: < 100 nM; Emax [1, 6]: < 50%; HiBiT-Degradation 293T.144 RET (658-1114) 6.0 hours (IP) [nM] ([2]; RET wild-type): ++++ (< 50 nM = ++++); DC50 [2, 7]: < 50 nM; Emax [2, 8]: < 30%
< 30%	< 100 nM	+++ (<100 nM = +++)	++++ (<50 nM = ++++)	< 30%	< 50 nM	CCC1(c2ccccn2)CCN(c2ccc(-c3nc(-c4cnn(C5CCN(C(=O)CN6CCC(c7ccc(NC8CCC(=O)NC8=O)cc7F)CC6)CC5)c4)cn4ncc(C#N)c34)cn2)CC1 (centres unmarked) [Compound 110, 6-[1-[1-[2-[4-[4-[(2,6-dioxo-3-piperidyl)amino]-2-fluoro-phenyl]-1-piperidyl]acetyl]-4-piperidyl]pyrazol-4-yl]-4-[6-[4-ethyl-4-(2-pyridyl)-1-piperidyl]-3-pyridyl]pyrazolo[1,5-a]pyrazine-3-carbonitrile]	
< 30%	< 50 nM					N#Cc1cnn2cc(-c3ccc(N4CCN(C(=O)CN5CCC(c6ccc(NC7CCC(=O)NC7=O)cc6)CC5)CC4)cc3)cc(-c3ccc(N4CCN(C(=O)Cc5ccc(F)cn5)CC4)nc3)c12 (centres unmarked) [Compound 74, 6-[4-[4-[2-[4-[4-[(2,6-dioxo-3-piperidyl)amino]phenyl]-1-piperidyl]acetyl]piperazin-1-yl]phenyl]-4-[6-[4-[2-(5-fluoro-2-pyridyl)acetyl]piperazin-1-yl]-3-pyridyl]pyrazolo[1,5-a]pyridine-3-carbonitrile]	HiBiT-Degradation 293T.165 RET(KD: 658-1114 G810R) 6.0 hours (IP) [nM] ([1]; RET G810R): ++++ (< 50 nM = ++++); DC50 [1, 5]: < 50 nM; Emax [1, 6]: < 30%; HiBiT-Degradation 293T.144 RET (658-1114) 6.0 hours (IP) [nM] ([2]; RET wild-type): ++++ (< 50 nM = ++++); DC50 [2, 7]: < 50 nM; Emax [2, 8]: < 30%
< 30%	< 100 nM					CCC1(C(=O)NC(C)C)CCN(c2ccc(-c3cc(-c4cnn(C5CCN(C(=O)CN6CCC(c7ccc8c(N9CCC(=O)NC9=O)nn(C)c8c7)CC6)CC5)c4)cn4ncc(C#N)c34)cn2)CC1 [Compound 63, 1-[5-[3-cyano-6-[1-[1-[2-[4-[3-(2,4-dioxohexahydropyrimidin-1-yl)-1-methyl-indazol-6-yl]-1-piperidyl]acetyl]-4-piperidyl]pyrazol-4-yl]pyrazolo[1,5-a]pyridin-4-yl]-2-pyridyl]-4-ethyl-N-isopropyl-piperidine-4-carboxamide]	293T.165 RET(KD: 658-1114 G810R) 6.0 hours (Emax) ([1]; HiBiT-Degradation): ++++ (< 30% = ++++); 293T.165 RET(KD: 658-1114 G810R) 6.0 hours (IP) [nM] ([1]; HiBiT-Degradation): ++++ (< 50 nM = ++++); DC50 [1, 11]: < 100 nM; 293T.144 RET (658-1114) 6.0 hours (IP) [nM] ([2]; HiBiT-Degradation): ++++ (< 50 nM = ++++); DC50 [2, 12]: < 50 nM; Emax [2, 13]: < 30%
		++++ (<50 nM = ++++)	++++ (<50 nM = ++++)		< 50 nM	CCC1(C(=O)NC(C)C)CCN(c2ccc(-c3nc(-c4cnn(C5CCC(CCN6CCC(c7ccc(NC8CCC(=O)NC8=O)cc7F)CC6)CC5)c4)cn4ncc(C#N)c34)cn2)CC1 (centres unmarked) [Compound 181, 1-(5-(3-Cyano-6-(1-((1r, 4r)-4-(2-(4-(4-((2,6-dioxopiperidin-3-yl)amino)-2-fluorophenyl)piperidin-1-yl)ethyl)cyclohexyl)-1H-pyrazol-4-yl)pyrazolo[1,5-a]pyrazin-4-yl)pyridin-2-yl)-4-ethyl-N-isopropylpiperidine-4-carboxamide]	293T.165 RET(KD: 658-1114 G810R) 6.0 hours (Emax) ([1]; % remaining protein): ++++ (<30% = ++++); 293T.165 RET(KD: 658-1114 G810R) 6.0 hours (DC50) [nM] ([1]; half-maximal degradation concentration): ++++ (<50 nM = ++++); 293T.144 RET (658-1114) 6.0 hours (Emax) ([2]; % remaining protein): ++++ (<30% = ++++)
< 30%	< 50 nM	++++ (<50 nM = ++++)	++++ (<50 nM = ++++)	< 30%	< 50 nM	N#Cc1cnn2cc(-c3cnn(C4CCN(C(=O)CC5(O)CCN(c6ccc(NC7CCC(=O)NC7=O)cc6F)CC5)CC4)c3)cc(-c3ccc(N4CCC(c5ccc(O)cc5)CC4)nc3)c12 (centres unmarked) [Compound 197, 6-[1-[1-[2-[1-[4-[(2,6-dioxo-3-piperidyl)amino]-2-fluoro-phenyl]-4-hydroxy-4-piperidyl]acetyl]-4-piperidyl]pyrazol-4-yl]-4-[6-[4-(4-hydroxyphenyl)-1-piperidyl]-3-pyridyl]pyrazolo[1,5-a]pyridine-3-carbonitrile]	
< 30%	< 50 nM					CCC1(C(=O)NC(C)C)CCN(c2ccc(-c3nc(-c4cnn(C5CCN(C(=O)CC6(O)CCN(c7ccc(N[C@@H]8CCC(=O)NC8=O)cc7Cl)CC6)CC5)c4)cn4ncc(C#N)c34)cn2)CC1 (single isomer, unassigned) [Compound 11]	293T.165 RET(KD: 658-1114 G810R) 6.0 hours (Emax) ([1]; HiBiT-Degradation): ++++ (< 30% = ++++); 293T.165 RET(KD: 658-1114 G810R) 6.0 hours (IP) [nM] ([1]; HiBiT-Degradation): ++++ (< 50 nM = ++++); DC50 [1, 11]: < 50 nM; 293T.144 RET (658-1114) 6.0 hours (IP) [nM] ([2]; HiBiT-Degradation): ++++ (< 50 nM = ++++); DC50 [2, 12]: < 50 nM; Emax [2, 13]: < 30%

Structure (SMILES)	Emax [1, 3]	DC50 [1, 4]	293T.165 RET(KD: 658-1114 G810R) 6.0 hours (IP) [nM] [1]	293T.144 RET (658-1114) 6.0 hours (IP) [nM] [2]	Emax [2, 9]	DC50 [2, 10]	further results
N#Cc1cnn2cc(-c3cnn([C@H]4CC[C@H](N5CCC(c6ccc(NC7CCC(=O)NC7=O)cc6F)CC5)CC4)c3)nc(-c3ccc(N4CC5COCC(C4)N5Cc4ccccn4)nc3)c12 (single isomer, unassigned) [Compound 154, 6-[1-[4-[4-[4-[(2,6-dioxo-3-piperidyl)amino]-2-fluoro-phenyl]-1-piperidyl]cyclohexyl]pyrazol-4-yl]-4-[6-[9-(2-pyridylmethyl)-3-oxa-7,9-diazabicyclo[3.3.1]nonan-7-yl]-3-pyridyl]pyrazolo[1,5-a]pyrazine-3-carbonitrile]	< 30%	< 50 nM	++++ (<50 nM = ++++)	++++ (<50 nM = ++++)	< 30%	< 50 nM	
